# Laboratory results: patent US5789439A, “Pharmaceutical use of forskolin derivatives” (Nippon Kayaku Kabushiki Kaisha, priority 1990, dated 1998)
# Where a name gives a salt, the structure may show the parent alone.
# Legend:
# femoral blood flow = experiment: Effect on femoral blood flow in anesthetized dogs; assay type: in vivo, dog; details: for Increase in femoral blood flow rate: mean ± SE
# Procedure: (1) Effect on femoral blood flow in anesthetized dogs was tested.
# A non-cannulating probe (FF-030T mfd. by Nihon Kohden K. K.) of an electromagnetic flow meter (MFV-2100 mfd. by Nihon Kohden K. K.) was placed around the left femoral artery of a dog anesthetized with pentobarbital to measure femoral bloow flow rate. The femoral blood flow rate was recorded on an ink-written recorder (WI-681G by Nihon Kohden K. K.).
# NKH-477 was dissolved in a physiological saline and injected into the right cephalic vein through a Nelaton's tube.
# [1] = system: total peripheral vascular resistance; experiment: Effect on peripheral vascular resistance in human; assay type: in vivo; details: i.v. 0.4 μg/kg/min, 40 minutes from start; four healthy adults; saline 1.7%
# Procedure: (3) Effect on peripheral vascular resistance in human was examined.
# A freeze-dried preparation comprising NKH-477 was dissolved in a physiological saline and continuously administered intravenously to four healthy adults at a rate of 0.4 μg/kg/min for one hour.
# The rate of reduction of total peripheral vascular resistance after 40 minutes from the start of administration was determined for each subject from mean blood pressure and cardiac output calculated from Ultrasonic cardiography (UCG).
# canine basilar artery = experiment: Spasmolytic effect on KCl-induced contraction, canine basilar artery ring; details: for Inhibition rate, Basilar artery: 35 mM KCl, papaverine 10^-4 M = 100%, mean ± SE, n = 3
# Procedure: The canine coronary and basilar arteries were extirpated under anesthesia with pentobarbital to prepare the 3 mm wide ring preparation. Each preparation was suspended in a 10-ml organ bath filled with a Krebs-Henseleit solution by applying a static tension of 1.5 g (for the coronary artery) and 1.0 g (for the basilar artery). The nutrient solution was maintained at 37° C. and aerated with a 95% 02 /5% CO2 gas. The isometric mascular tension was measured with an FD pickup (TB-611T mfd. by Nihon Kohden K. K.) and recorded on a recorder (TI-104 mfd. by Tokai IRIKA K. K.).
# After about 2 hours of equilibrium time, contraction was induced with 30 mM of KCl (for coronary artery) and 35 mM of KCl (for basilar artery), and after contraction was stabilized, NKH-477 was administered cumulatively. The spasmolytic effect was expressed as percentages of the inhibition, with the maximal inhibition obtained with papaverine hydrochloride (10^-4 M) being supposed to have shown 100% inhibition.
# [2] = system: NB-1 cells (a human neuroblastoma strain); experiment: Differentiation inducing effect for NB-1 cells; assay type: cell-based; details: 4-hour incubation
# Procedure: The differentiation inducing effect for the NB-1 cells (a human neuroblastoma strain: cell strain derived from neuroblastoma generated in infantile adrenal gland) was examined. The NB-1 cells were applied to a 96-well plate at a rate of 2×10^3 cells/well and precultured for 3 days. After attachment and growth were stabilized, the medium (RPMI 1640+10% fetal calf serum+SM.PC) was exchanged and a 10 μl solution of each test compound was added. Then, the cells were kept under constant observation to determine the occurrence or non-occurrence of differentiation. 2 mM (1.037 mg/ml) of dibutyryl cAMP dissolved in RPMI 1640 was used as positive control. NKH-477 and 14,15-dihydro-6-(3-dimethylaminopropionyl)forskolin hydrochloride were dissolved in a physiological saline. Forskolin was dissolved in DMSO and diluted with a physiological saline. The criterion for judgment of morphological change in differentiation is as follows. The figures in the parentheses are the ratio of the differentiated cells to the whole cells. It was confirmed that DMSO was totally devoid of differentiation inducing and promoting action at the concentrations used in this test.
# [3] = system: total peripheral vascular resistance; experiment: Effect on peripheral vascular resistance in anesthetized dogs; assay type: in vivo, dog; details: for Change in total peripheral vascular resistance: mean ± SE
# Procedure: (2) Effect on peripheral vascular resistance in an anesthetized dogs was examined. Blood pressure was measured with a pressure transducer (CP-01 mfd. by Century Technology Co.) connected to a polyethylene tube inserted into a right femoral artery of a dog anesthetized with pentobarbital, and the cardiac output was measured according to a thermodilution method by using a dilution type cardiac output counter (MLC-4200 mfd. by Nihon Kohden K. K.) and a 7F thermodilution catheter (TC-704 mfd. by Nihon Kohden K. K.) inserted into the pulmonary artery through the right femoral vein. The total peripheral vascular resistance was determined by dividing the mean blood pressure by the cardiac output. NKH-477 was dissolved in a physiological saline and infused into a right cephalic vein at rates of 0.15, 0.3 and 0.6 μg/kg/min (flow rate: 0.2 ml/min) for 2 hours by using a continuous injection pump (Model 975C mfd. by Harvard Corp.). For the control, physiological saline was similarly infused at a rate of 0.2 ml/min.
structure (smiles),measurement,setting,value
"C=C[C@@]1(C)CC(=O)[C@]2(O)[C@@]3(C)[C@@H](O)CCC(C)(C)[C@@H]3[C@H](OC(=O)CCN(C)C)[C@H](OC(C)=O)[C@@]2(C)O1 [NKH-477, 6-(3-dimethylaminopropionyl)forskolin hydrochloride]",Increase in femoral blood flow rate,"femoral blood flow; 1 μg/kg i.v., n = 6 (SE 2.9 printed)",7.6%
same,Increase in femoral blood flow rate,"femoral blood flow; 3 μg/kg i.v., n = 6 (SE 5.2 printed)",22.9%
same,Increase in femoral blood flow rate,"femoral blood flow; 10 μg/kg i.v., n = 6 (SE 17.7 printed)",61.7%
same,blood flow rate in the femoral artery,femoral blood flow; intravenous injection of 1-10 μg/kg,increased the blood flow rate in the femoral artery dose-dependently
same,Increase in femoral blood flow rate,"femoral blood flow; printed 30 μmg/kg i.v., n = 6 (SE 28.7 printed)",62.2%
same,average reduction rate of total peripheral vascular resistance,[1],19.7%
same,IC50,"canine basilar artery; Canis lupus familiaris, KCl-induced contraction, n=3",102 nM
same,inhibitory action against KCl-induced contraction in the basilar artery,"canine basilar artery; Table 3, in words",concentration-dependent inhibitory action
same,"Inhibition rate, Basilar artery",canine basilar artery; line 1 of 5,3.8 ± 2.0%
same,"Inhibition rate, Basilar artery",canine basilar artery; line 2 of 5,22.1 ± 3.3%
same,"Inhibition rate, Basilar artery",canine basilar artery; line 3 of 5,52.0 ± 5.3%
same,"Inhibition rate, Basilar artery",canine basilar artery; line 4 of 5,78.3 ± 1.2%
same,"Inhibition rate, Basilar artery",canine basilar artery; line 5 of 5,89.2 ± 0.6%
same,Effect (differentiation inducing),[2]; Dose 1.56 μM,± (slight (<20%))
same,Effect (differentiation inducing),[2]; Dose 6.25 μM,++ (heavy (>80%))
same,Effect (differentiation inducing),[2]; Dose 25.00 μM,++ (heavy (>80%))
same,Effect (differentiation inducing),[2]; Dose 100.00 μM,++ (heavy (>80%))
same,Change in total peripheral vascular resistance,"[3]; 0.15 μg/kg/min, 10 min from start of infusion, control 2.1 ± 1.5",-2.7 ± 2.4%
same,Change in total peripheral vascular resistance,"[3]; 0.15 μg/kg/min, 30 min after cessation of infusion, control 31.4 ± 13.9",7.4 ± 7.4%
same,Change in total peripheral vascular resistance,"[3]; 0.15 μg/kg/min, 30 min from start of infusion, control 4.0 ± 2.3",-6.2 ± 3.7%
same,Change in total peripheral vascular resistance,"[3]; 0.15 μg/kg/min, 60 min after cessation of infusion, control 29.1 ± 9.7",15.7 ± 10.4%
same,Change in total peripheral vascular resistance,"[3]; 0.15 μg/kg/min, 60 min from start of infusion, control 13.8 ± 3.4",-9.1 ± 5.7%
same,Change in total peripheral vascular resistance,"[3]; 0.15 μg/kg/min, 120 min after cessation of infusion, control 26.8 ± 12.5",12.8 ± 7.2%
same,Change in total peripheral vascular resistance,"[3]; 0.15 μg/kg/min, 120 min from start of infusion, control 20.5 ± 9.2",-5.7 ± 6.6%
same,Change in total peripheral vascular resistance,"[3]; 0.3 μg/kg/min, 10 min from start of infusion, control 2.1 ± 1.5",-3.7 ± 2.9%
same,Change in total peripheral vascular resistance,"[3]; 0.3 μg/kg/min, 30 min after cessation of infusion, control 31.4 ± 13.9",6.7 ± 7.0%
same,Change in total peripheral vascular resistance,"[3]; 0.3 μg/kg/min, 30 min from start of infusion, control 4.0 ± 2.3",-10.4 ± 3.1%
same,Change in total peripheral vascular resistance,"[3]; 0.3 μg/kg/min, 60 min after cessation of infusion, control 29.1 ± 9.7",17.1 ± 6.0%
same,Change in total peripheral vascular resistance,"[3]; 0.3 μg/kg/min, 60 min from start of infusion, control 13.8 ± 3.4",-10.2 ± 4.1%
same,Change in total peripheral vascular resistance,"[3]; 0.3 μg/kg/min, 120 min after cessation of infusion, control 26.8 ± 12.5",17.2 ± 9.2%
same,Change in total peripheral vascular resistance,"[3]; 0.3 μg/kg/min, 120 min from start of infusion, control 20.5 ± 9.2",-11.5 ± 4.7%
same,Change in total peripheral vascular resistance,"[3]; 0.6 μg/kg/min, 10 min from start of infusion, control 2.1 ± 1.5",-18.3 ± 8.6%
same,Change in total peripheral vascular resistance,"[3]; 0.6 μg/kg/min, 30 min after cessation of infusion, control 31.4 ± 13.9",-13.4 ± 7.6%
same,Change in total peripheral vascular resistance,"[3]; 0.6 μg/kg/min, 30 min from start of infusion, control 4.0 ± 2.3",-28.1 ± 5.9%
same,Change in total peripheral vascular resistance,"[3]; 0.6 μg/kg/min, 60 min after cessation of infusion, control 29.1 ± 9.7",-4.1 ± 9.1%
same,Change in total peripheral vascular resistance,"[3]; 0.6 μg/kg/min, 60 min from start of infusion, control 13.8 ± 3.4",-29.0 ± 6.4%
same,Change in total peripheral vascular resistance,"[3]; 0.6 μg/kg/min, 120 min after cessation of infusion, control 26.8 ± 12.5",11.8 ± 12.9%
same,Change in total peripheral vascular resistance,"[3]; 0.6 μg/kg/min, 120 min from start of infusion, control 20.5 ± 9.2",-28.0 ± 5.4%
same,recovery of total peripheral vascular resistance,[3]; after cessation of the infusion,substantially restored in 2 hours after cessation of the infusion
same,"total peripheral vascular resistance, course in words",[3]; i.v. infusion 0.15-0.6 μg/kg/min for 2 hours,decreased gradually after the start of infusion
